Test results taken from paper PMC13028883 (Pharmaceuticals, 2026).

Experiment: Pharmacokinetics of anthraquinones in plasma of cholestatic rats after oral DH, DH+MX or DHXSD
Format: in vivo, rat
Settings: oral DH 1.2 g/kg, mean ± SD, n = 6
Procedure: Cholestasis was established in rats through a single oral dose of ANIT (60 mg/kg in olive oil). […] Sequential blood samples were obtained at 5, 15, 30 min, and 1, 2, 4, 6, 8, 12, 24, and 36 h after administration. Plasma was separated by centrifugation and deproteinized by adding a 3:1 (v/v) ratio of acetonitrile containing 5 ng/mL IS1. Ultra-performance liquid chromatography–tandem mass spectrometry analysis was performed on the supernatants following a centrifugation, employing the described analytical approach [29].
Pharmacokinetic parameters were calculated using Drug And Statistics software (version 3.0). Intergroup comparisons were performed by one-way ANOVA followed by Tukey’s post hoc test for multiple comparisons. A p-value < 0.05 was considered statistically significant.

`O=C1c2cccc(O)c2C(=O)c2c(O)cc(CO)cc21` [Aloe emodin, aloe emodin] showed a t1/2 of 4.88 ± 0.97 h.
